Our source for the IC50 values is US20110124626A1, “BENZAZEPINE DERIVATIVES AND THEIR USE AS HISTAMINE H3 ANTAGONISTS” (TAKEDA PHARMACEUTICAL COMPANY LIMITED, priority 2008, published 2011).

For test [1], the target named is T1, human H3 receptor (Homo sapiens, UniProt Q9Y5N1).
T1 construct: expressed in transfected cells
The experiment in a line: In vitro H3 binding assay (3H-N-α-methyl-histamine competition binding). The conditions noted are these: membranes of CHO-K1 cells expressing human H3 receptor; 2 nM 3H-NαMH; read-out: hH3 binding IC50. The method in brief:
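Membranes from CHO-K1 cells stably expressing human H3 (5 μg/well) incubated 1 h at room temperature with compound and 2 nM ³H-NαMH in 50 mM Tris-HCl pH 7.4, 5 mM MgCl2; non-specific binding defined with 1 μM RαMH. Bound radioactivity measured by filtration and scintillation; IC50 from seven-point curves by variable-slope sigmoidal regression.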

The target in test [2] is T1, human H3 receptor. The experiment in a line: In vitro H3 functional assay (cAMP response element driven luciferase reporter). The test is classed as cell-based. The following applies: CHO(dhfr+)-cre-luc cells expressing human H3 receptor; RαMH 10 nM, forskolin 1 μM; read-out: hH3 functional IC50. Here is the method:
The functional activity of compounds at the H3 receptor was determined by measuring changes in the level of intracellular cAMP using a cAMP response element driven luciferase reporter assay. The changes in luciferase expression were monitored by a luminescence plate reader, Analyst HT (MDS Analytical). Increases in intracellular cAMP were readily detected upon activation of protein kinase A by forskolin (Sigma) and suppression of this response observed with the application of the H3 receptor agonist RαMH (Sigma).
CHO(dhfr^+)-cre-luc cells stably expressing human H3 receptor were routinely grown as monolayers in Minimal Essential Medium α (MEMα) (Invitrogen) supplemented with 10% dialysed FBS (Hyclone), in 5% CO2 at 37° C. 48 hours prior to assay, cells were seeded in clear-base white walled 384-well plates (Corning) at a density of 5000 cells/well. On the day of assay, growth media was removed and replaced with […] of assay buffer (MEMα, 5 mg/ml fatty acid free BSA (Sigma)) per well. Cells were then incubated for 30 minutes at 37° C., 5% CO2. Compound was serially diluted in DMSO before being diluted 1:10 with assay buffer. 2.5 of compound diluted in assay buffer was added and cells incubated for 5 minutes at 37° C., 5% CO2. 2.5 μl of each reagent was then added in the following order: RαMH (10 nM), isobutylmethylxanthine (1-methyl-3-(2-methylpropyl)-7H-purine-2,6-dione; IBMX) (500 μM) (Sigma) and forskolin (1 μM). Cells were then incubated for 90 minutes at 37° C., 5% CO2, followed by 30 minutes at room temperature. At the end of incubation 25 μl of Steadylite reagent (Perkin Elmer) was added, plates were sealed and placed on a shaker for 5 minutes. The level of light output to determine the level of luciferase expression was then measured.
IC50 values for compounds were determined from ten point half log scale dose-response studies and represent the concentration of compound required to […] 50% inhibition of forskolin stimulated cells in the presence of RαMH alone. Curves were generated using the average of duplicate wells for each data point and analyzed using nonlinear regression of four parameter dose response.

The structures appear in SMILES notation. pIC50: −log10 of the molar value.

T1 sequence (Q9Y5N1 whole entry): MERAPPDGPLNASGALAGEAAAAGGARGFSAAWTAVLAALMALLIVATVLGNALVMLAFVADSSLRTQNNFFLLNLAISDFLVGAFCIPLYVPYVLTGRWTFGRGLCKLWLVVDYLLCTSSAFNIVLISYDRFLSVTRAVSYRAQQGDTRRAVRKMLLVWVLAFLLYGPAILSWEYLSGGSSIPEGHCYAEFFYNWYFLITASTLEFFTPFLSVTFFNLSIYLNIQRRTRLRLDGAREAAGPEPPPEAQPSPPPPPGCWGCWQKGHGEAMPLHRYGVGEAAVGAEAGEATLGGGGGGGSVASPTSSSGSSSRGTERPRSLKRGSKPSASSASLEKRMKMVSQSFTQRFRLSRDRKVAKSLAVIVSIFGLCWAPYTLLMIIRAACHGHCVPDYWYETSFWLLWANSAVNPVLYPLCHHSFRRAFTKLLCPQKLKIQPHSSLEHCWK

For the molecule `CCNC(=O)C1CCC(O)(Cc2ccc3c(c2)CCN(C2CCC2)CC3)CC1` (stereo not shown) [Example 231, 4-((3-cyclobutyl-2,3,4,5-tetrahydro-1H-benzo[d]azepin-7-yl)methyl)-N-ethyl-4-hydroxycyclohexanecarboxamide], the pIC50 on human H3 receptor [1] is 7.64; on human H3 receptor [2], 7.82.
On the same counts, the results for `CC(C)(O)c1ccc(C(=O)NCc2ccc3c(c2)CCN(C2CCC2)CC3)cn1` [Example 239, N-((3-cyclobutyl-2,3,4,5-tetrahydro-1H-benzo[d]azepin-7-yl)methyl)-6-(2-hydroxypropan-2-yl)nicotinamide] are 7.80 and 9.00.
In the same order, the values of `O=C(NCc1ccc2c(c1)CCN(C1CC(F)C1)CC2)c1ccc(N2CCCC2)nc1` (stereo not shown) [Example 242, N-((3-(3-fluorocyclobutyl)-2,3,4,5-tetrahydro-1H-benzo[d]azepin-7-yl)methyl)-6-(pyrrolidin-1-yl)nicotinamide] are 9.22 and 8.52.
In the case of `COc1ccc(CC(=O)Cc2ccc3c(c2)CCN(C2CCC2)CC3)cn1` [Example 244, 1-(3-cyclobutyl-2,3,4,5-tetrahydro-1H-benzo[d]azepin-7-yl)-3-(6-methoxypyridin-3-yl)propan-2-one], the values for the pIC50 on human H3 receptor [1] and on human H3 receptor [2] were 8.00 and 8.22, respectively.
In the same order, the values of `O=C(NCc1ccc2c(c1)CCN(C1CCC1)CC2)c1ccc(NC2CCC2)nc1` [Example 253, N-((3-cyclobutyl-2,3,4,5-tetrahydro-1H-benzo[d]azepin-7-yl)methyl)-6-(cyclobutylamino)nicotinamide] are 9.00 and 8.40.
In the same order, the values of `O=C(NCc1ccc2c(c1)CCN(C1CCC1)CC2)c1cnc(N2CCCC2)nc1` [Example 256, N-((3-cyclobutyl-2,3,4,5-tetrahydro-1H-benzo[d]azepin-7-yl)methyl)-2-(pyrrolidin-1-yl)pyrimidine-5-carboxamide] are 9.52 and 8.52.
`COc1ccc(C(=O)NCc2ccc3c(c2)CCN(C2CC(O)C2)CC3)cn1` (stereo not shown) [Example 262, N-((3-(3-hydroxycyclobutyl)-2,3,4,5-tetrahydro-1H-benzo[d]azepin-7-yl)methyl)-6-methoxynicotinamide]: the pIC50 on human H3 receptor [1] was 7.60; at human H3 receptor [2], 8.00.
On to `Cc1noc(C)c1C(=O)NCc1ccc2c(c1)CCN(C1CCC1)CC2` [Example 263, N-[(3-cyclobutyl-2,3,4,5-tetrahydro-1H-3-benzazepin-7-yl)methyl]-3,5-dimethyl-1,2-oxazole-4-carboxamide], for which the negative-log IC50 (pIC50) at human H3 receptor [1] was 7.74; on human H3 receptor [2], 8.22.
On the same counts, the results for `C[C@@H]1CCCN1C(=O)NCc1ccc2c(c1)CCN(C1CCC1)CC2` [Example 265, (R)—N-((3-cyclobutyl-2,3,4,5-tetrahydro-1H-benzo[d]azepin-7-yl)methyl)-2-methylpyrrolidine-1-carboxamide] are 8.22 and 8.40.
On the same counts, the results for `O=C1CCCN1Cc1ccc2c(c1)CCN(C1CCC1)CC2` [Example 304, 1-((3-cyclobutyl-2,3,4,5-tetrahydro-1H-benzo[d]azepin-7-yl)methyl)pyrrolidin-2-one] are 7.21 and 7.47.
In the same order, the values of `CCCOc1ccc(C(=O)NCc2ccc3c(c2)CCN(C2CCC2)CC3)cn1` [Example 306, N-((3-cyclobutyl-2,3,4,5-tetrahydro-1H-benzo[d]azepin-7-yl)methyl)-6-propoxynicotinamide] are 7.74 and 8.70.
